One data set relates to MCF-7 cancer cells. Nature of the data set: Lysosome inhibition, MBd quantification in MCF-7 cells. The format is cell-based. Conditions: lysosomal inhibition 22 hours. The text has this: (§1) Each dividing cell was considered one cell.
The test system of another data set is HeLa cells. Description: Lysosome inhibition, MBd quantification in HeLa cells. The format is cell-based. Conditions: lysosomal inhibition 22 hours.
Text: as §1

A further data set concerns hRPE-1 cells. Description: Lysosome inhibition, MBd quantification in hRPE-1 cells. The format is cell-based. Particulars: lysosomal inhibition 22 hours.
Text: as §1

A further data set concerns hESCs (H1, H9). Nature of the data set: Lysosome inhibition, MBd quantification in hESCs. Particulars: chloroquine treatment.

The structures appear in SMILES notation. “Also recorded” adds a separate entry of the source.

Text for hESCs (H1, H9): Quantification was based on the markers that: 1) labeled both mitotic MBs and MBds (MKLP1, mgcRACGAP, or Cep55); 2) labeled MBs differently than MBds (α-tubulin or Aurora B); 3) defined cell boundaries (α-tubulin or ZO-1). Because Cep55, MKLP1, and mgcRACGAP also label centrioles and spindle midzones, cells were co-stained with centrosome antibody (e.g. 5051), and a size threshold for MB/MBds (1 μm) was introduced to exclude non-MBd structures. Structures with MB-specific or non-MB/MBd labeling were excluded from MBd counts. Cell counts: For hESCs, 5-11 colonies were imaged from triplicates in each experiment. For other cell types, random fields were imaged until n>500 cells. Each dividing cell was considered one cell.
Cells at 70% confluency were incubated with chloroquine (200 μM/PBS; Sigma), E64d+ pepstatin A (E64d/PepA) (10 μg ml^−1/DMSO each; Sigma) (Klionsky et al., 2008, Autophagy, 4:151-175; Komatsu et al., 2007, Cell, 131:1149-63) or solvents alone (controls) for 22 hours before fixation. Lysosome inhibition was confirmed and visualized after 12-hour DQ-Red BSA (10 μg ml^−1; Invitrogen) incubation.

As for `CCN(CC)CCCC(C)Nc1ccnc2cc(Cl)ccc12` (stereo not shown) [chloroquine], in the data set with MCF-7 cancer cells, the “percent of MBd+ cells (MBd levels)” value was “largely unaffected; also recorded: no detectable effect” and the “percent of MBds in lysosomes” value was “largely unaffected”. For the same compound, in the data set on HeLa cells, the “percent of MBd+ cells (MBd levels)” value is listed as “modest increase; also recorded: increase the percent of MBd+ cells” and the “presence of MBds in lysosomes” value was “presence of MBds in lysosomes”. Also, the “percent of MBds found within lysosomes” value with hRPE-1 cells (LAMP2 lysosome marker) is “elevated; also recorded: presence of MBds in lysosomes”. Also, the “percent of MBd+ cells (MBd levels)” value in the data set with hRPE-1 cells (chloroquine 200 μM or E64d/PepA 10 μg/ml each) is given as “elevated; also recorded: increase the percent of MBd+ cells”. In the data set with hESCs (H1, H9), the “effect of treatment on the cells (differentiation, cell death)” value was “caused differentiation and cell death”.

Source of the values: US9409978B2, “Modulation of midbody derivatives” (University of Massachusetts, priority 2011, dated 2016).
